Each molecule was assayed against GLP-1R (Homo sapiens, UniProt P43220) (assay: GLP-1R Activation - cAMP Assay). Settings: […]; each compound run on one of the two cAMP assays (Assay 1 or Assay 2, not specified).
GLP-1R, sequence (P43220 24-463): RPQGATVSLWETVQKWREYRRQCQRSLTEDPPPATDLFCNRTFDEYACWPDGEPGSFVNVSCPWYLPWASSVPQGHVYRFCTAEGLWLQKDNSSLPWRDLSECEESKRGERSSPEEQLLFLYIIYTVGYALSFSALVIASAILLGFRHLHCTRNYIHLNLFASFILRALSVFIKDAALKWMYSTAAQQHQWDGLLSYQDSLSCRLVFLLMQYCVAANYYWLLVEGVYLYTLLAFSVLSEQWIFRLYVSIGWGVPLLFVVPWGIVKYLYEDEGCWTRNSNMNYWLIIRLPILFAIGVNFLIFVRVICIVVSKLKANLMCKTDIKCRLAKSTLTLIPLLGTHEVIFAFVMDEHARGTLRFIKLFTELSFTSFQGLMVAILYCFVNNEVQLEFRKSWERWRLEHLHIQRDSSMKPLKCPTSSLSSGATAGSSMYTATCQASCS
Format: cell-based
Outline: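 CHO cells stably expressing GLP-1R, plated at 1,000 cells/well overnight, then equilibrated 1 h in HBSS with 20 mM Hepes and 0.1% BSA. Agonist added as 10-point dose response for 30 min at 37 °C. cAMP measured by HTRF (Cisbio Gs Dynamic kit); EC50 from sigmoidal fit.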
For `CC(=O)N1C[C@@H](F)[C@H](n2c(Cc3cc(F)c(-c4cccc(OCc5ccc(C#N)cc5F)n4)cc3F)nc3ccc(C(=O)O)cc32)C1` [Example 40], the EC50 was 155 nM.

Same assay, conditions: cAMP increase in CHO cells stably expressing GLP-1R; each compound run on one of the two cAMP assays (Assay 1 or Assay 2, not specified)
In the case of `COCCn1c(Cc2cc(F)c(-c3cccc(OCc4ncc(C#N)cc4F)n3)cc2F)nc2ccc(C(=O)O)cc21` [Example 39], the EC50 is reported as 8.98 nM. Work on `COCCn1c(Cc2cc(F)c(-c3cc(C(F)F)cc(OCc4ccc(C#N)cc4F)n3)cc2F)nc2ccc(C(=O)O)cc21` [Example 41] yielded an EC50 of 4.88 nM. Molecule `COCCn1c(Cc2cc(F)c(-c3cc(Cl)cc(OCc4ccc(C#N)cc4F)n3)cc2F)nc2ccc(C(=O)O)cc21` [Example 42, 2-(4-(4-chloro-6-((4-cyano-2-fluorobenzyl)oxy)pyridin-2-yl)-2,5-difluorobenzyl)-1-(2-methoxyethyl)-1H-benzo[d]imidazole-6-carboxylic Acid] has an EC50 of 4.25 nM. Molecule `COCCn1c(Cc2cc(F)c(-c3cc(OC)cc(OCc4ccc(C#N)cc4F)n3)cc2F)nc2ccc(C(=O)O)cc21` [Example 43, 2-(4-(6-((4-cyano-2-fluorobenzyl)oxy)-4-methoxypyridin-2-yl)-2,5-difluorobenzyl)-1-(2-methoxyethyl)-1H-benzo[d]imidazole-6-carboxylic Acid] has an EC50 of 20.8 nM. Work on `COCCn1c(Cc2cc(F)c(-c3cc(O)cc(OCc4ccc(C#N)cc4F)n3)cc2F)nc2ccc(C(=O)O)cc21` [Example 44, 2-(4-(6-((4-cyano-2-fluorobenzyl)oxy)-4-hydroxypyridin-2-yl)-2,5-difluorobenzyl)-1-(2-methoxyethyl)-1H-benzo[d]imidazole-6-carboxylic Acid] yielded an EC50 of 0.81 nM. For `COCCn1c(Cc2cc(F)c(-c3cc(N)nc(OCc4ccc(C#N)cc4F)n3)cc2F)nc2ccc(C(=O)O)cc21` [Example 45, 2-(4-(6-amino-2-((4-cyano-2-fluorobenzyl)oxy)pyrimidin-4-yl)-2,5-difluorobenzyl)-1-(2-methoxyethyl)-1H-benzo[d]imidazole-6-carboxylic Acid], the EC50 was 16.7 nM. Work on `COCCn1c(Cc2ccc(-c3cccc(OCc4ccc(C#N)cc4F)c3)nc2)nc2ccc(C(=O)O)cc21` [Example 46] yielded an EC50 of 20.9 nM. For `CC(C)(O)C#Cc1cc(C(=O)O)cc2c1nc(Cc1cc(F)c(-c3cccc(OCc4ccc(C#N)cc4F)n3)cc1F)n2C1COCC1(C)C` (centres unmarked) [Example 47], the EC50 was 0.78 nM. For `CC1(C)COCC1n1c(Cc2cc(F)c(-c3cccc(OCc4ccc(C#N)cc4F)n3)cc2F)nc2c(C#CC3CC3)cc(C(=O)O)cc21` (centres unmarked) [Example 48, 2-(4-(6-((4-cyano-2-fluorobenzyl)oxy)pyridin-2-yl)-2,5-difluorobenzyl)-4-(cyclopropylethynyl)-1-(4,4-dimethyltetrahydrofuran-3-yl)-1H-benzo[d]imidazole-6-carboxylic Acid], the EC50 was 0.21 nM. Molecule `COCCn1c(Cc2nc(N)c(-c3cccc(OCc4ccc(C#N)cc4F)n3)cc2F)nc2ccc(C(=O)O)cc21` [Example 49] has an EC50 of 45.6 nM. Molecule `COCCn1c(Cc2c(F)cc(-c3cccc(OCc4ccc(C#N)cc4F)n3)c3nccn23)nc2ccc(C(=O)O)cc21` [Example 50] has an EC50 of 5.24 nM. In the case of `COCCn1c(C(F)c2cc(F)c(-c3cccc(OCc4ccc(C#N)cc4F)n3)cc2F)nc2ccc(C(=O)O)cc21` (centres unmarked) [Example 51], the EC50 is reported as 0.83 nM. Work on `COCCn1c(C(F)(F)c2cc(F)c(-c3cccc(OCc4ccc(C#N)cc4F)n3)cc2F)nc2ccc(C(=O)O)cc21` [Example 52] yielded an EC50 of 21.3 nM. With `COCCn1c(Cc2c(F)cc(-c3cccc(OCc4ccc(C#N)cc4F)n3)c3ncnn23)nc2ccc(C(=O)O)cc21` [Example 53] the EC50 was 5.11 nM. `COCCn1c(C(CO)c2cc(F)c(-c3cccc(OCc4ccc(C#N)cc4F)n3)cc2F)nc2ccc(C(=O)O)cc21` (centres unmarked) [Example 54] gave an EC50 of 31.6 nM. For `COCCn1c(Cc2cc(F)c(-c3cccc(OCc4ccc(C#N)cc4F)n3)cc2F)nc2c(-c3cncnc3)cc(C(=O)O)cc21` [Example 55], the EC50 was 25.8 nM. `COCCn1c(Cc2cc(F)c(-c3cccc(OCc4ccc(C#N)cc4F)n3)cc2F)nc2c(-c3cnn(CCN4CCOCC4)c3)cc(C(=O)O)cc21` [Example 56, 2-(4-(6-((4-cyano-2-fluorobenzyl)oxy)pyridin-2-yl)-2,5-difluorobenzyl)-1-(2-methoxyethyl)-4-(1-(2-morpholinoethyl)-1H-pyrazol-4-yl)-1H-benzo[d]imidazole-6-carboxylic Acid] was tested, and the EC50 was 903 nM. `Cn1cc(-c2cc(F)c(COc3cccc(-c4cc(F)c(Cc5nc6ccc(C(=O)O)cc6n5[C@H]5COCC5(C)C)cc4F)n3)cn2)cn1` [Example 57] showed an EC50 of 2.06 nM. Molecule `CC1(C)COC[C@@H]1n1c(Cc2cc(F)c(-c3cccc(OCc4ccc(C#N)cc4F)n3)cc2F)nc2ccc(C(=O)O)cc21` [Example 59] has an EC50 of 0.32 nM. `COCCn1c(Cc2cc(F)c(-c3cccc(OCc4ccc(-n5ccnc5)cc4F)n3)cc2F)nc2ccc(C(=O)O)cc21` [Example 61] was tested, and the EC50 was 0.83 nM. For `N#Cc1ccc(COc2cccc(-c3cc(F)c(Cc4nc5ccc(C(=O)O)cc5n4C4CC45CC5)cc3F)n2)c(F)c1` (centres unmarked) [Example 62], the EC50 was 7.32 nM. In the case of `N#Cc1ccc(COc2cccc(-c3cc(F)c(Cc4nc5ccc(C(=O)O)cc5n4C4CCCC45CC5)cc3F)n2)c(F)c1` (centres unmarked) [Example 63, 2-(4-(6-((4-cyano-2-fluorobenzyl)oxy)pyridin-2-yl)-2,5-difluorobenzyl)-1-(spiro[2.4]heptan-4-yl)-1H-benzo[d]imidazole-6-carboxylic Acid], the EC50 is reported as 2.55 nM. For `N#Cc1ccc(COc2cccc(-c3cc(F)c(Cc4nc5ccc(C(=O)O)cc5n4C4CCC45CC5)cc3F)n2)c(F)c1` (centres unmarked) [Example 64, 2-(4-(6-((4-cyano-2-fluorobenzyl)oxy)pyridin-2-yl)-2,5-difluorobenzyl)-1-(spiro[2.3]hexan-4-yl)-1H-benzo[d]imidazole-6-carboxylic Acid], the EC50 was 1.28 nM. `CO[C@@H]1CC[C@@H]1n1c(Cc2cc(F)c(-c3cccc(OCc4ccc(C#N)cc4F)n3)cc2F)nc2ccc(C(=O)O)cc21` [Example 65, 2-(4-(6-((4-cyano-2-fluorobenzyl)oxy)pyridin-2-yl)-2,5-difluorobenzyl)-1-((1S,2R)-2-methoxycyclobutyl)-1H-benzo[d]imidazole-6-carboxylic Acid] was tested, and the EC50 was 5.05 nM. With `N#Cc1ccc(COc2cccc(-c3cc(F)c(Cc4nc5ccc(C(=O)O)cc5n4C45COC(C4)C5)cc3F)n2)c(F)c1` [Example 66, 1-(2-oxabicyclo[2.1.1]hexan-4-yl)-2-(4-(6-((4-cyano-2-fluorobenzyl)oxy)pyridin-2-yl)-2,5-difluorobenzyl)-1H-benzo[d]imidazole-6-carboxylic Acid] the EC50 was 12.9 nM. `N#Cc1ccc(COc2cccc(-c3cc(F)c(Cc4nc5ccc(C(=O)O)cc5n4N4CCCC4)cc3F)n2)c(F)c1` [Example 67, 2-(4-(6-((4-cyano-2-fluorobenzyl)oxy)pyridin-2-yl)-2,5-difluorobenzyl)-1-(pyrrolidin-1-yl)-1H-benzo[d]imidazole-6-carboxylic Acid] gave an EC50 of 7.25 nM. With `N#Cc1ccc(COc2cccc(-c3cc(F)c(Cc4nc5ccc(C(=O)O)cc5n4C4COC5CC4C5)cc3F)n2)c(F)c1` (centres unmarked) [Example 68, 1-(2-oxabicyclo[3.1.1]heptan-4-yl)-2-(4-(6-((4-cyano-2-fluorobenzyl)oxy)pyridin-2-yl)-2,5-difluorobenzyl)-1H-benzo[d]imidazole-6-carboxylic Acid] the EC50 was 0.33 nM. With `N#Cc1ccc(COc2cccc(-c3cc(F)c(Cc4nc5ccc(C(=O)O)cc5n4C45COCC4C5)cc3F)n2)c(F)c1` (centres unmarked) [Example 69, 1-(3-oxabicyclo[3.1.0]hexan-1-yl)-2-(4-(6-((4-cyano-2-fluorobenzyl)oxy)pyridin-2-yl)-2,5-difluorobenzyl)-1H-benzo[d]imidazole-6-carboxylic Acid] the EC50 was 13.8 nM. In the case of `CO[C@H]1CCOC[C@H]1n1c(Cc2cc(F)c(-c3cccc(OCc4ccc(C#N)cc4F)n3)cc2F)nc2ccc(C(=O)O)cc21` [Example 70, 2-(4-(6-((4-cyano-2-fluorobenzyl)oxy)pyridin-2-yl)-2,5-difluorobenzyl)-1-((3R,4S)-4-methoxytetrahydro-2H-pyran-3-yl)-1H-benzo[d]imidazole-6-carboxylic Acid], the EC50 is reported as 0.26 nM. `N#Cc1ccc(COc2cccc(-c3cc(F)c(Cc4nc5ccc(C(=O)O)cc5n4[C@H]4C[C@H]5CO[C@@H]4C5)cc3F)n2)c(F)c1` [Example 71, 1-((1R,4R,6S)-2-oxabicyclo[2.2.1]heptan-6-yl)-2-(4-(6-((4-cyano-2-fluorobenzyl)oxy)pyridin-2-yl)-2,5-difluorobenzyl)-1H-benzo[d]imidazole-6-carboxylic Acid] gave an EC50 of 1.19 nM. Molecule `CC1(C)OCCC1n1c(Cc2cc(F)c(-c3cccc(OCc4ccc(C#N)cc4F)n3)cc2F)nc2ccc(C(=O)O)cc21` (centres unmarked) [Example 74, 2-(4-(6-((4-cyano-2-fluorobenzyl)oxy)pyridin-2-yl)-2,5-difluorobenzyl)-1-(2,2-dimethyltetrahydrofuran-3-yl)-1H-benzo[d]imidazole-6-carboxylic Acid] has an EC50 of 4.38 nM. Molecule `CC1(C)COCC1n1c(Cc2cc(F)c(-c3cccc(OCc4ccc(C#N)cc4F)n3)cc2F)nc2ccc(C(=O)O)cc21` (centres unmarked) [Example 78, 2-(4-(6-((4-cyano-2-fluorobenzyl)oxy)pyridin-2-yl)-2,5-difluorobenzyl)-1-(4,4-dimethyltetrahydrofuran-3-yl)-1H-benzo[d]imidazole-6-carboxylic Acid] has an EC50 of 0.36 nM. With `N#Cc1ccc(COc2cccc(-c3cc(F)c(Cc4nc5ccc(C(=O)O)cc5n4[C@@H]4CO[C@H]5COC[C@H]54)cc3F)n2)c(F)c1` [Example 79, 2-(4-(6-((4-cyano-2-fluorobenzyl)oxy)pyridin-2-yl)-2,5-difluorobenzyl)-1-((3S,3aR,6aR)-hexahydrofuro[3,4-b]furan-3-yl)-1H-benzo[d]imidazole-6-carboxylic Acid] the EC50 was 5.62 nM. `N#Cc1ccc(COc2cccc(-c3cc(F)c(Cc4nc5ccc(C(=O)O)cc5n4[C@@H]4CO[C@@H]5CNC[C@H]45)cc3F)n2)c(F)c1` [Example 80, 2-(4-(6-((4-cyano-2-fluorobenzyl)oxy)pyridin-2-yl)-2,5-difluorobenzyl)-1-((3S,3aR,6aS)-hexahydro-2H-furo[2,3-c]pyrrol-3-yl)-1H-benzo[d]imidazole-6-carboxylic Acid] gave an EC50 of 4.91 nM.

— patent publication US12570642B2, “GLP-IR modulating compounds” (Gilead Sciences, Inc., priority 2021, dated 2026)
